Experimental data: patent US20030166721A1, “Choline derivative for the treatment of alzheimer's disease” (priority 2000, published 2003)

Assays:
[1] = molecular target: T1, Choline Specific Transport System (HUCT) (Rattus norvegicus, UniProt Q9JMD7); assay: EEG after ICV Hemicholinium-3 (choline uptake blocker) pretreatment; type: in vivo; conditions: rats, ICV 1 μg-0.1 ng
T1 construct: from tissue; host or cells: brain of living Wistar rats (in vivo, ICV microinfusion, EEG read-out)
T1 sequence (Q9JMD7 1-580): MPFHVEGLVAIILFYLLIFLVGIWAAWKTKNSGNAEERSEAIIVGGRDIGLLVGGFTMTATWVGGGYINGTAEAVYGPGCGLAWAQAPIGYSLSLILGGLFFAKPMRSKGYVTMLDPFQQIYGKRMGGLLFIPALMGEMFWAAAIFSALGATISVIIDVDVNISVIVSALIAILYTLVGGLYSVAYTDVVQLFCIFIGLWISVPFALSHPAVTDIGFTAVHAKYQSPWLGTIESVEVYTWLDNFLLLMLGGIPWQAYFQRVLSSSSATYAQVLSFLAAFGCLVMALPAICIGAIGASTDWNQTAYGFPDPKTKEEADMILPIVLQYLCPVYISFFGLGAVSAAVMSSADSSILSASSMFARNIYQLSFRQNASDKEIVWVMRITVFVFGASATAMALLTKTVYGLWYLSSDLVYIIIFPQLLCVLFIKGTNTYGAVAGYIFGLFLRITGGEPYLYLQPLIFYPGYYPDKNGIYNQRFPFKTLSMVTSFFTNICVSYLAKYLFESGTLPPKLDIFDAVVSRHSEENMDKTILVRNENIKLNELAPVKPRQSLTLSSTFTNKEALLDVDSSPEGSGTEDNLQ
Experimental: FIG. 4B—Effect on EEG spectrum power after treatment with PC-1 (5 mg i.p.) administered 15 min after microinfusion of Hch3 (0.1 ng/0.5 μl) in the III ventricule. As in FIG. 4a, time (min) is reported in abscissa, the EEG spectrum power expressed as μV^2/s is reported in ordinate. Graphics report the EEG spectrum total power (0.25-16 Hz).

rats = assay: Synergistic effect with tacrine: qEEG of neocortical activity in rats; type: in vivo, rat; conditions: n=7; for EEG power (qEEG of neocortical activity), 15″ / EEG power (qEEG of neocortical activity), 30″ / EEG power (qEEG of neocortical activity), 45″ / EEG power (qEEG of neocortical activity), 60″ / EEG power (qEEG of neocortical activity), 75″ / EEG power (qEEG of neocortical activity), 90″ / EEG power (qEEG of neocortical activity), 105″ / EEG power (qEEG of neocortical activity), 120″ / EEG power (qEEG of neocortical activity), 135″: rats i.p., PC-1/PC-2 15 μmol/2 ml/kg, THA 5 mg/kg 30 min before, atropine 0.1 mg/kg 15 min before; for EEG power (qEEG of neocortical activity), Baseline: before i.p. treatment
Experimental: Results reported in Table 5 show the synergistic effect of the combination of tacrine with the choline derivatives of the present invention.
Vehicle: 2 ml/Kg; all drugs were administered i.p., PC-1 and PC-2 at corresponding equimolar doses (15 μmol/2 ml/kg^−1); THA (tacrine) (5 mg/kg) was administered 30 min before compounds; atropine (0.1 mg/kg) was injected 15 min before PC-1 and PC-2. The number of animals was 7 per each group. Values represent EEG power (μV/s).

Wistar rats [2] = assay: EEG spectral qualitative and quantitative analysis in freely moving rats after i.p. administration; type: in vivo, rat; conditions: for EEG frequency band 0.25-3 Hz / EEG frequency band 3-6 Hz / EEG frequency band 6-9 Hz / EEG frequency band 9-12 Hz / EEG frequency band 12-16 Hz: after i.p. administration, % ± SEM; for Effect of atropine given 15 min before the compound: atropine pretreatment; for EEG total power (fronto-parietal cortex), Baseline: before i.p. injection (vol. 0.5 ml); for EEG total power (fronto-parietal cortex), Baseline / EEG total power (fronto-parietal cortex), 15′ / EEG total power (fronto-parietal cortex), 30′ / EEG total power (fronto-parietal cortex), 45′ / EEG total power (fronto-parietal cortex), 60′ / EEG total power (fronto-parietal cortex), 75′ / EEG total power (fronto-parietal cortex), 90′: mean ± SEM, 7 tests; for EEG total power (fronto-parietal cortex), 15′ / EEG total power (fronto-parietal cortex), 30′ / EEG total power (fronto-parietal cortex), 45′ / EEG total power (fronto-parietal cortex), 60′ / EEG total power (fronto-parietal cortex), 75′ / EEG total power (fronto-parietal cortex), 90′: i.p. (vol. 0.5 ml)
Experimental: Young male Wistar rats (200-260) were used in the experiments, housed in a standard temperature and humidity conditions, with food and water ad libitum. […] After surgery all animals were housed 48 h to allow a complete recovery. 48 Hours after electrode implantation, the animals, placed in a transparent box and freely moving, were connected with an electroencephalograph and the electrocortical activity was continuously monitored and recorded. […] Qualitative and quantitative analysis on the electrocortical activity EEG recording was subsequently carried out. The animals were divided in 4 groups, the first group acted as the control, the second received cytidine-5′-diphosphocholine (CDP-choline), the third and fourth received PC-1 and PC-2, respectively (pivaloylcholine iodide and pivaloyleholine trimethylacetate, respectively). The control group received an equal volume of saline solution by the same procedure. […] Statistical analysis was performed by analysis of variance (ANOVA) for multiple measurements followed, if significant, by the post-hoc Tuckey-Kramer test. A comparison between groups was performed to exclude any individual variability.

Wistar rats [3] = assay: Behavioural and EEG effects in rats at different doses; type: in vivo, rat
Experimental: Young male Wistar rats (200-260) were used in the experiments, housed in a standard temperature and humidity conditions, with food and water ad libitum.
The animals, anaesthetised with chloral hydrate (400 mg/kg) […], were stereotaxically implanted (Kopft Instruments) with cortical electrodes (n=4) onto the fronto-parietal region of the neocortex on both cerebral hemispheres, to record EEG. After surgery all animals were housed 48 h to allow a complete recovery.
48 Hours after electrode implantation, the animals, placed in a transparent box and freely moving, were connected with an electroencephalograph and the electrocortical activity was continuously monitored and recorded. After a 30 min control time, the compounds under test were intraperitoneally administered and EEG recording was continued for 90-120 min
EEG was recorded by computerised 24-channels apparatus (Vega 24, Galileo type, ESA-OTE Biomedica, Florence, Italy), while the spectrum activity was quantitatively analysed by a Berg Fourier analyser (ESA-OTE Biomedica, Florence, Italy). The total EEG power (0.25-16 Hz range) was divided into 5 variable frequency bands: δ 0.25-3 Hz, θ 3-6; α1 6-9; α2 9-12 and β12-16 Hz.
The EEG patterns and behavioral effects observed in the rat after administration of the choline derivatives and of the vehicle is reported in 5 Tab. 3. Such effects can be ascribed to the changes of EEG spectrum total power. An […] in EEG total power is related with the presence of slow frequency waves (synchronisation), whereas an […] thereof is related with the presence of rapid frequency waves (desynchronisation).

C[N+]1(C)CCOC(O)(c2ccc(-c3ccc(C4(O)C[N+](C)(C)CCO4)cc3)cc2)C1.[Br-].[Br-] (centres unmarked) [Hch3, Hemicholinium-3, reference compound]
Behavioural and EEG effect of ICV administration [1]: behavioural sedation and sleep, EEG synchronization and increase in EEG total power

Nc1c2c(nc3ccccc13)CCCC2 [THA, tacrine, reference compound]
EEG power (qEEG of neocortical activity), 15″ (rats): 72.5 μV/s | EEG power (qEEG of neocortical activity), 30″ (rats): 68 μV/s | EEG power (qEEG of neocortical activity), 45″ (rats): 75.5 μV/s | EEG power (qEEG of neocortical activity), 60″ (rats): 97.5 μV/s | EEG power (qEEG of neocortical activity), 75″ (rats): 122 μV/s | EEG power (qEEG of neocortical activity), 90″ (rats): 129.5 μV/s | EEG power (qEEG of neocortical activity), 105″ (rats): 135 μV/s | EEG power (qEEG of neocortical activity), 120″ (rats): 137 μV/s | EEG power (qEEG of neocortical activity), 135″ (rats): 119.5 μV/s | EEG power (qEEG of neocortical activity), Baseline (rats; rats): 118 μV/s

C[N+](C)(C)CCOP(=O)(O)OP(=O)([O-])OC[C@H]1O[C@@H](n2ccc(N)nc2=O)[C@H](O)[C@@H]1O [CDP-choline, cytidine-5′-diphosphocholine, reference compound]
Time to onset of EEG desynchronization and significant decrease in EEG total power (Wistar rats [2]; 5 mg i.p.): 60 min | EEG frequency band 0.25-3 Hz (Wistar rats [2]): 3.8 ± 1.3(*) % | EEG frequency band 3-6 Hz (Wistar rats [2]): 19.2 ± 1.5(*) % | EEG frequency band 6-9 Hz (Wistar rats [2]): 31.5 ± 0.9% | EEG frequency band 9-12 Hz (Wistar rats [2]): 18.5 ± 1.7% | EEG frequency band 12-16 Hz (Wistar rats [2]): 20.5 ± 1.3% | Effect of atropine given 15 min before the compound (Wistar rats [2]): antagonize the effects | EEG total power (fronto-parietal cortex), Baseline (Wistar rats [2]): 98 ± 3.6 | EEG total power (fronto-parietal cortex), 15′ (Wistar rats [2]): 93 ± 2.9 | EEG total power (fronto-parietal cortex), 30′ (Wistar rats [2]): 271 ± 3.2 | EEG total power (fronto-parietal cortex), 45′ (Wistar rats [2]): 89 ± 2.9 | EEG total power (fronto-parietal cortex), 60′ (Wistar rats [2]): 65 ± 2(*) | EEG total power (fronto-parietal cortex), 75′ (Wistar rats [2]): 95 ± 3.3 | EEG total power (fronto-parietal cortex), 90′ (Wistar rats [2]): 103 ± 2.6 | Behaviour (Wistar rats [3]; 1 mg): No effects | EEG Activity (change of EEG total power) (Wistar rats [3]; 1 mg): No effects | Behaviour (Wistar rats [3]; 5 mg): Alert response | EEG Activity (change of EEG total power) (Wistar rats [3]; 5 mg): Decrease | Behaviour (Wistar rats [3]; 25 mg): Sedation | EEG Activity (change of EEG total power) (Wistar rats [3]; 25 mg): Increase | Behaviour (Wistar rats [3]; 50 mg): Sedation | EEG Activity (change of EEG total power) (Wistar rats [3]; 50 mg): No effects

pivaloylcholine trimethylacetate [PC-2]
Change of slow EEG spectrum components (FIG. 3) (Wistar rats [2]): decrease in slow components (delta and theta) of the spectrum | Duration of the decrease in EEG total power (Wistar rats [2]; 5 mg i.p.): about 30 min | Time to onset of EEG desynchronization and significant decrease in EEG total power (Wistar rats [2]; 5 mg i.p.): ≤ 15 min | EEG 60 min after administration (Wistar rats [2]; 5 mg i.p., 60 min): rapid frequency activity (about 16 Hz) and significant increase (P<0.01) in EcoG total power | EEG frequency band 0.25-3 Hz (Wistar rats [2]): 2.4 ± 1.3(**) % | EEG frequency band 3-6 Hz (Wistar rats [2]): 21.3 ± 0.9% | EEG frequency band 6-9 Hz (Wistar rats [2]): 22.3 ± 1.3% | EEG frequency band 9-12 Hz (Wistar rats [2]): 13.5 ± 0.7% | EEG frequency band 12-16 Hz (Wistar rats [2]): 22.5 ± 1.6(*) % | Effect of atropine given 15 min before the compound (Wistar rats [2]): antagonize the effects | EEG total power (fronto-parietal cortex), Baseline (Wistar rats [2]): 93 ± 3.5 | EEG total power (fronto-parietal cortex), 15′ (Wistar rats [2]): 50 ± 1.9(**) | EEG total power (fronto-parietal cortex), 30′ (Wistar rats [2]): 55 ± 2.5(*) | EEG total power (fronto-parietal cortex), 45′ (Wistar rats [2]): 90 ± 3.3 | EEG total power (fronto-parietal cortex), 60′ (Wistar rats [2]): 132 ± 1.5(*) | EEG total power (fronto-parietal cortex), 75′ (Wistar rats [2]): 96 ± 2.7 | EEG total power (fronto-parietal cortex), 90′ (Wistar rats [2]): 90 ± 3.6 | Behaviour (Wistar rats [3]; 5 mg): Alert response | EEG Activity (change of EEG total power) (Wistar rats [3]; 5 mg): Decrease | Behaviour (Wistar rats [3]; 50 mg): Convulsions and death (50%) | EEG Activity (change of EEG total power) (Wistar rats [3]; 50 mg): Peaks | EEG power (qEEG of neocortical activity), 15″ (rats): 58.5 μV/s | EEG power (qEEG of neocortical activity), 30″ (rats): 64.5 μV/s | EEG power (qEEG of neocortical activity), 45″ (rats): 98 μV/s | EEG power (qEEG of neocortical activity), 60″ (rats): 103 μV/s | EEG power (qEEG of neocortical activity), 75″ (rats): 97.5 μV/s | EEG power (qEEG of neocortical activity), 90″ (rats): 110.3 μV/s | EEG power (qEEG of neocortical activity), 105″ (rats): 124 μV/s | EEG power (qEEG of neocortical activity), 120″ (rats): 120.5 μV/s | EEG power (qEEG of neocortical activity), 135″ (rats): 117.5 μV/s | EEG effect with tacrine given 30 min before (rats; rats, THA 5 mg/Kg i.p. 30 min before 15 μmol i.p.): long-lasting EEG desynchronization and significant decrease in EEG spectrum total power | EEG power (qEEG of neocortical activity), Baseline (rats; rats): 105 μV/s
